The record followed here is US10633389B2, “CARM1 inhibitors and uses thereof” (Epizyme, Inc., priority 2013, dated 2020).

In one assay the target is human CARM1 (PRMT4) (Homo sapiens (Human), UniProt Q86X55). Description: CARM1 enzyme assay on peptide substrate (3H-SAM Flashplate). The note with it: Biochemical potencies, read-out: Biochem IC50. The source says: S-adenosylmethionine (SAM), S-adenosylhomocysteine (SAH), bicine, Tween20, dimethylsulfoxide (DMSO), bovine skin gelatin (BSG), sodium butyrate and Tris(2-carboxyethyl)phosphine hydrochloride solution (TCEP) were purchased from Sigma-Aldrich at the highest level of purity possible. ^3H-SAM was purchase from American Radiolabeled Chemicals with a specific activity of 80 Ci/mmol. 384-well streptavidin Flashplates were purchased from PerkinElmer.
Chain of human CARM1 (PRMT4) (Q86X55 other isoform, or with tags, fused parts or gaps isoform Q86X55-1): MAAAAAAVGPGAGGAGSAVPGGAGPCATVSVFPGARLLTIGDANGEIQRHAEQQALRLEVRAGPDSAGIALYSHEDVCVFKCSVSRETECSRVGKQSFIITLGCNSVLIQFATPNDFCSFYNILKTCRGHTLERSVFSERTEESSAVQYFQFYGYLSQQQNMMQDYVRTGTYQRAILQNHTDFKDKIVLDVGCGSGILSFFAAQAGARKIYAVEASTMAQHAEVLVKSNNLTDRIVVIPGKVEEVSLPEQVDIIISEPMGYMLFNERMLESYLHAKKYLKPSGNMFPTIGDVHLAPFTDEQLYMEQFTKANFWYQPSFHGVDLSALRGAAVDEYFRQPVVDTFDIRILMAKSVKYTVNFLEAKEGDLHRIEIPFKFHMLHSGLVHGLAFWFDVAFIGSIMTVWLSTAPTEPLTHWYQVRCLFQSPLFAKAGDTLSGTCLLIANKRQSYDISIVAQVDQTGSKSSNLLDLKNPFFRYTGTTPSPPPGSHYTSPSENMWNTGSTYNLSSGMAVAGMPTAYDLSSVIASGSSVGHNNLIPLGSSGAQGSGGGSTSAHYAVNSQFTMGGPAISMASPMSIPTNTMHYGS
Peptide representative of human histone H3 residues 16-30 was synthesized with an N-terminal linker-affinity tag motif and a C-terminal amide cap by 21st Century Biochemicals. […] The sequence was Biot-Ahx-[…]-amide and contained a monomethylated arginine at position 26 (SEQ ID NO.:1).
The gene sequence encoding isoform 1 containing a deletion of amino acids 539-561 was amplified subsequently and subcloned into pFastBacMam (Viva Biotech).
Recombinant baculovirus were generated according to Bac-to-Bac kit instructions (Life Technologies). Protein over-expression was accomplished by infecting exponentially growing HEK 293F cell culture at 1.3×10^6 cell/ml with virus (MOI=10) in the presence of 8 mM sodium butyrate. Infections were carried out at 37° C. for 48 hours, harvested by centrifugation, and stored at −80° C. for purification.
Expressed full-length human Flag- and His-tagged CARM1 protein was purified from cell paste by anti-flag M2 affinity chromatography with resin equilibrated with buffer containing 20 mM Tris, 150 mM NaC, 5% glycerol, pH 7.8. Column was washed with 500 mM NaCl in buffer A and Flag-CARM1-His was eluted with 200 ug/ml FLAG peptide in buffer A. Pooled fractions were dialyzed in 20 mM Tris, 150 mM NaCl, 5% glycerol and 1 mM DTT, pH 7.8.
The assays were all performed in a buffer consisting of 20 mM Bicine (pH=7.6), 1 mM TCEP, 0.005% BSG, and 0.002% Tween 20, prepared on the day of use. Compounds in 100% DMSO (1 ul) were spotted into a polypropylene 384-well V-bottom plates (Greiner) using a Platemate Plus outfitted with a 384-channel head (Thermo Scientific). DMSO (1 ul) was added to Columns 11, 12, 23, 24, rows A-H for the maximum signal control and 1 ul of SAH, a known product and inhibitor of CARM1, was added to columns 11, 12, 23, 24, rows I-P for the minimum signal control. A cocktail (40 ul) containing the CARM1 enzyme was added by Multidrop Combi (Thermo-Fisher). The compounds were allowed to incubate with CARM1 for 30 min at room temperature, then a cocktail (10 ul) containing ^3H-SAM and peptide was added to initiate the reaction (final volume=51 ul). The final concentrations of the components were as follows: CARM1 was 0.25 nM, ^3H-SAM was 30 nM, peptide was 250 nM, SAH in the minimum signal control wells was 1 mM, and the DMSO concentration was 2%. The assays were stopped by the addition of non-radiolabeled SAM (10 ul) to a final concentration of 300 uM, which dilutes the ^3H-SAM to a level where its incorporation into the peptide substrate is no longer detectable. 50 ul of the reaction in the 384-well polypropylene plate was then transferred to a 384-well Flashplate and the biotinylated peptides were allowed to bind to the streptavidin surface for at least 1 hour before being washed once with 0.1% Tween20 in a Biotek ELx405 plate washer. The plates were then read in a PerkinElmer TopCount plate reader to measure the quantity of ^3H-labeled peptide bound to the Flashplate surface, measured as disintegrations per minute (dpm) or alternatively, referred to as counts per minute (cpm).
The Hill Coefficient normally allowed to float but may also be fixed at 1 in a 3-parameter fit.

Assay [1] deals with asymmetric di-methyl PABP1 in RKO cells. Description: RKO methylation assay, In Cell Western (ICW) for asymmetric di-methyl PABP1. Format: cell-based. Conditions: Cellular potencies, ICW PABP1me2a. The procedure, abridged: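 In-cell Western on fixed RKO cells after 48 h compound exposure: anti-asymmetric di-methyl PABP1 signal at 800 nm over DRAQ5 DNA signal at 700 nm. Percent inhibition set between DMSO wells and wells with 20 μM reference compound; IC50 curves fitted in triplicate.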

As to `CNCC(O)COc1cccc(-c2nc(NC3CCOCC3)c(CO)c(-c3c(C)noc3C)n2)c1` (stereo not drawn) [Example 213-1a], the IC50 – broadly, the concentration needed to halve the response being measured – on human CARM1 (PRMT4) lay in the range of 0.1 to 1 µM; in assay [1] (Homo sapiens, RKO) it was 10 to 20 µM.
For `CCN1CCN(c2nc(-c3cccc(OCC(O)CNC)c3)nc(NC3CCOCC3)c2C)CC1` (stereo not drawn) [Example 641-1a], in that order: 0.1 to 1 µM and at least 20 µM.
For `CNCC(O)COc1cccc(-c2nc(N[C@@H]3CCOC3)c(C)c(N3CCC(O)CC3)n2)c1` (stereo partly drawn) [Example 361-1a], in that order: 0.1 to 1 µM and 10 to 20 µM.
On the same counts, the results for `CNCC(O)COc1ccc(C#N)c(-c2nc(NC3CCOCC3)c(C)c(-c3c(C)noc3C)n2)c1` (stereo not drawn) [Example 166-3] are 0.1 to 1 µM and at least 20 µM.
As to `CNCC(O)COc1cccc(-c2nc(Nc3c(C)noc3C)cc(-c3c(C)noc3C)n2)c1` (stereo not drawn) [Example 48-1a], the IC50 on human CARM1 (PRMT4) is 1 to 3 µM; in assay [1] (Homo sapiens, RKO) it was 10 to 20 µM.
For `CNCC(O)COc1cccc(-c2nc(N[C@@H]3CCOC3)c(C)c(N3CCC[C@H]3COC)n2)c1` (stereo partly drawn) [Example 395-1a], in that order: 0.1 to 1 µM and 10 to 20 µM.
As for `CNCC(O)COc1cc(-c2nc(N(C)C3CCOCC3)c(C)c(-n3cccn3)n2)cc(-n2cccn2)c1` (stereo not drawn) [Example 598-1a], the concentration for half-maximal inhibition (IC50) on human CARM1 (PRMT4) was 0.1 to 1 µM; in assay [1] (Homo sapiens, RKO), 10 to 20 µM.
For `CNCC(O)COc1cccc(-c2nc(N[C@@H]3CCOC3)c(C)c(-c3c(C)ncnc3C)n2)c1` (stereo partly drawn) [Example 460-1a], in that order: 0.1 to 1 µM and 10 to 20 µM.
For `CNCC(O)COc1cccc(-c2nc(N[C@@H]3CCOC3)c(C)c(-c3ccnc(N(C)C)c3)n2)c1` (stereo partly drawn) [Example 389-1a], in that order: 0.1 to 1 µM and 10 to 20 µM.
On the same counts, the results for `CCS(=O)(=O)N1CCN(c2nc(-c3cccc(OCC(O)CNC)c3)nc(NC3CCOCC3)c2C)CC1` (stereo not drawn) [Example 668-1a] are 0.1 to 1 µM and at least 20 µM.
Consider `CNCC(O)COc1cccc(-c2nc(N3CCN(CCF)CC3)cc(N(C)C3CCOCC3)n2)c1` (stereo not drawn) [Example 596-1a], for which the IC50 at human CARM1 (PRMT4) fell in the range of 0.1 to 1 µM; in assay [1] (Homo sapiens, RKO), 10 to 20 µM.
For `CNCC(O)COc1cccc(-c2nc(N[C@@H]3CCOC3)c(C)c(-c3ccc(=O)[nH]c3)n2)c1` (stereo partly drawn) [Example 409-1a], in that order: 0.1 to 1 µM and 10 to 20 µM.
For `CNCC(O)COc1cccc(-c2nc(N[C@@H]3CCOC3)c(C)c(N3CCN(C(C)=O)CC34CC4)n2)c1` (stereo partly drawn) [Example 438-1a], in that order: 0.1 to 1 µM and 10 to 20 µM.
With `CNCC(O)COc1cccc(-c2nc(N[C@@H]3CCOC3)c(C)c(-c3cnccn3)n2)c1` (stereo partly drawn) [Example 451-1a], the IC50 lay within 0.1 to 1 µM at human CARM1 (PRMT4) and 10 to 20 µM in assay [1] (Homo sapiens, RKO).
Regarding `CNCC(O)COc1cccc(-c2nc(N[C@@H]3CCOC3)c(C)c(N3CCNC(=O)C3)n2)c1` (stereo partly drawn) [Example 380-1a], the IC50 was in the range of 0.1 to 1 µM on human CARM1 (PRMT4) and 10 to 20 µM in assay [1] (Homo sapiens, RKO).
For `CNCC(O)COc1cccc(-c2nc(N[C@@H]3CCOC3)c(C)c(-c3ccnc(-n4ccnc4)c3)n2)c1` (stereo partly drawn) [Example 405-1a], in that order: 0.1 to 1 µM and 10 to 20 µM.
For `CNCC(O)COc1cccc(-c2nc(NC3CCOCC3)c(C)c(N3CCNC(C)C3)n2)c1` (stereo not drawn) [Example 645-1a], in that order: 1 to 3 µM and at least 20 µM.
On the same counts, the results for `CNCC(O)COc1cccc(-c2nc(N[C@@H]3CCOC3)c(C)c(C(=O)NCC3CCOCC3)n2)c1` (stereo partly drawn) [Example 346-1a] are 0.1 to 1 µM and 10 to 20 µM.
On to `CNCC(O)COc1cccc(-c2nc(N[C@@H]3CCOC3)c(C)c(-c3cc[nH]n3)n2)c1` (stereo partly drawn) [Example 349-1a], for which the IC50 fell in the range of 0.1 to 1 µM on human CARM1 (PRMT4) and 10 to 20 µM in assay [1] (Homo sapiens, RKO).
As for `CNCC(O)COc1cccc(-c2nc(N[C@H]3CO[C@H]4OCC[C@H]43)cc(N3CCOCC3)n2)c1` (stereo partly drawn) [Example 672-1a], the half-inhibitory concentration (IC50) was 0.1 to 1 µM at human CARM1 (PRMT4) and 10 to 20 µM in assay [1].
Consider `CNCC(O)COc1cccc(-c2nc(-c3c(C)n[nH]c3C)c(C)c(-c3c(C)noc3C)n2)c1` (stereo not drawn) [Example 26-1a], for which the IC50 is 1 to 3 µM at human CARM1 (PRMT4) and 10 to 20 µM in assay [1] (Homo sapiens, RKO).
